Four compounds from paper PMC5222924, “Synergistic interplay of Gβγ and phosphatidylinositol 4,5-bisphosphate dictates Kv7.4 channel activity” (Pflugers Archiv, 2016) can be followed below.

Experiment [1] has as its target T1, Kv7.4 (Homo sapiens, UniProt P56696).
T1 construct: gene KCNQ4; full-length channel, homomer, stably expressed in HEK293 cells (line a gift from the University of Copenhagen)
T1 sequence (P56696 1-695): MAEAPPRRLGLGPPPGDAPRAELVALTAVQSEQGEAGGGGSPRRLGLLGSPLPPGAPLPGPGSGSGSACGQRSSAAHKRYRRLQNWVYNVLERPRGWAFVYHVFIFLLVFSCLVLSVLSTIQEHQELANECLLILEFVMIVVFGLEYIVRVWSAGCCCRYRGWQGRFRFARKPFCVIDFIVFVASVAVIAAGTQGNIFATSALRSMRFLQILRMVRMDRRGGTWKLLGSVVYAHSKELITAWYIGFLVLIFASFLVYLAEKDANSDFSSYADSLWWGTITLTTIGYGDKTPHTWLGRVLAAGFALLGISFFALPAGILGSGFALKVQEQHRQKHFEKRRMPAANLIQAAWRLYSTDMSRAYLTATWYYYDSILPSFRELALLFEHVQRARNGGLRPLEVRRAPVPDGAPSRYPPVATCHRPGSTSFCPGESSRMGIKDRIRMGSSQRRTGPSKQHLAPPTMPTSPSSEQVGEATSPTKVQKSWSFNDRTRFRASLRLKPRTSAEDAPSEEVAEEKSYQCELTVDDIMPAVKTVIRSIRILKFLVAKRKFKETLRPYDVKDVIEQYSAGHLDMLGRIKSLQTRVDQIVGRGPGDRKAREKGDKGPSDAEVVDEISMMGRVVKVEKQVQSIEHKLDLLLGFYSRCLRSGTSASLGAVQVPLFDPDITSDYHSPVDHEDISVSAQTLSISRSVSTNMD
In words: whole-cell patch clamp. The format is cell-based. As to conditions: room temperature; opener, concentration not given; common approximate value for three openers.

The next experiment concerns the target Kv7.4 channel (UniProt P56696).
For experiment [2], the target named is T1, Kv7.4. In words: inside-out patch clamp, single-channel NPo. Conditions: room temperature; activator applied to excised patch, no added Gβγ; unreliable: saturation not reached, sigmoidal fit of pooled patches. The format is cell-based. A general note: The patch-clamp technique gives a direct electrical read-out from membranes.

For the compound `CCOC(=O)Nc1ccc(NCc2ccc(F)cc2)cc1N` [Retigabine], at Kv7.4 [1], the “% increase of current at +20 mV” value is ~ 40%.

In the experiment with Kv7.4 channel, “G-protein βγ subunits from bovine brain (from UniProt P62871 1-340; P63212 1-71) (complex)” showed a half maximal stimulation of Kv7.4 channel activity, inside-out excised patches, bath application of Gβγ (0.4–50 ng/ml) of 8.1 ng/mL and an increase of whole-cell Kv7.4 current amplitude within 5 min of rupture, intracellular perfusion of active Gβγ (250 ng/ml), control cells of 70%.

NS15370: at Kv7.4 [1], the “% increase of current at +20 mV” value is ~ 40%. PIP2: the half-maximal stimulation at Kv7.4 [2] is ~ 117 μM.
